Measurements taken from ChEMBL document CHEMBL3045187, “Chemical weed control in seedbed sown onion (Allium cepa L.)” (Crop Prot, 2006).

Key:
Cyperus rotundus [1] = assay: Herbicidal activity against Cyperus rotundus assessed as total fresh weight at 0.6 kg/ha applied as spray before seed sowing (reference value: 23.6 MT/ha); type: functional
Malva sylvestris [2] = assay: Herbicidal activity against Malva sylvestris assessed as total fresh weight at 0.6 kg/ha applied as spray before seed sowing (reference value: 23.6 MT/ha); type: functional
Chenopodiastrum murale [3] = assay: Herbicidal activity against Chenopodium murale assessed as total fresh weight at 0.6 kg/ha applied as spray before seed sowing (reference value: 23.6 MT/ha); type: functional
Cyperus rotundus [4] = assay: Herbicidal activity against Cyperus rotundus assessed as decrease in total dry weight at 0.6 kg/ha applied as spray during post-emergence relative to weed-infested control; type: functional; design: scale not given: the % may be the effect or the level left
Malva sylvestris [5] = assay: Herbicidal activity against Malva sylvestris assessed as decrease in total dry weight at 0.6 kg/ha applied as spray during post-emergence relative to weed-infested control; type: functional; design: scale not given: the % may be the effect or the level left
Chenopodiastrum murale [6] = assay: Herbicidal activity against Chenopodium murale assessed as decrease in total dry weight at 0.6 kg/ha applied as spray during postemergence relative to weed-infested control; type: functional; design: scale not given: the % may be the effect or the level left
Malva sylvestris [7] = assay: Herbicidal activity against Malva sylvestris assessed as total dry weight at 0.6 kg/ha applied as spray before seed sowing (reference value: 4.1 MT/ha); type: functional
Cyperus rotundus [8] = assay: Herbicidal activity against Cyperus rotundus assessed as total dry weight at 0.6 kg/ha applied as spray before seed sowing (reference value: 4.1 MT/ha); type: functional
Malva sylvestris [9] = assay: Herbicidal activity against Malva sylvestris assessed as total fresh weight at 0.6 kg/ha applied as spray during post-emergence (reference value: 23.6 MT/ha); type: functional
Cyperus rotundus [10] = assay: Herbicidal activity against Cyperus rotundus assessed as total fresh weight at 0.6 kg/ha applied as spray during post-emergence (reference value: 23.6 MT/ha); type: functional
Chenopodiastrum murale [11] = assay: Herbicidal activity against Chenopodium murale assessed as total fresh weight at 0.6 kg/ha applied as spray during postemergence (reference value: 23.6 MT/ha); type: functional
Chenopodiastrum murale [12] = assay: Herbicidal activity against Chenopodium murale assessed as total dry weight at 0.6 kg/ha applied as spray before seed sowing (reference value: 4.1 MT/ha); type: functional
Allium cepa [13] = assay: Phytotoxicity in Allium cepa (onion) seedling assessed as total fresh weight at 0.6 kg/ha applied as spray during post-emergence (reference value: 7.71 MT/ha); type: organism-based; conditions: in vivo, other
Allium cepa [14] = assay: Phytotoxicity in Allium cepa (onion) seedling assessed as total fresh weight at 0.6 kg/ha applied as spray before seed sowing (reference value: 7.71 MT/ha); type: organism-based; conditions: in vivo, other
Cyperus rotundus [15] = assay: Herbicidal activity against Cyperus rotundus assessed as total fresh weight at 1.5 kg/ha applied as spray before seed sowing (reference value: 23.6 MT/ha); type: functional; conditions: pooled result: one value given for 3 cell lines, strains, targets or settings
Cyperus rotundus [16] = assay: Herbicidal activity against Cyperus rotundus assessed as total dry weight at 1.5 kg/ha applied as spray before seed sowing (reference value: 4.1 MT/ha); type: functional; conditions: pooled result: one value given for 3 cell lines, strains, targets or settings
Allium cepa [17] = assay: Phytotoxicity in Allium cepa (onion) seedling assessed as total fresh weight at 1.5 kg/ha applied as spray before seed sowing (reference value: 7.71 MT/ha); type: organism-based; conditions: in vivo, other
Cyperus rotundus [18] = assay: Herbicidal activity against Cyperus rotundus assessed as total fresh weight at 3.2 kg/ha applied as spray before seed sowing (reference value: 23.6 MT/ha); type: functional
Malva sylvestris [19] = assay: Herbicidal activity against Malva sylvestris assessed as total fresh weight at 3.2 kg/ha applied as spray before seed sowing (reference value: 23.6 MT/ha); type: functional
Chenopodiastrum murale [20] = assay: Herbicidal activity against Chenopodium murale assessed as total fresh weight at 3.2 kg/ha applied as spray before seed sowing (reference value: 23.6 MT/ha); type: functional
Chenopodiastrum murale [21] = assay: Herbicidal activity against Chenopodium murale assessed as total dry weight at 3.2 kg/ha applied as spray before seed sowing (reference value: 4.1 MT/ha); type: functional
Cyperus rotundus [22] = assay: Herbicidal activity against Cyperus rotundus assessed as total dry weight at 3.2 kg/ha applied as spray before seed sowing (reference value: 4.1 MT/ha); type: functional
Malva sylvestris [23] = assay: Herbicidal activity against Malva sylvestris assessed as total dry weight at 3.2 kg/ha applied as spray before seed sowing (reference value: 4.1 MT/ha); type: functional
Allium cepa [24] = assay: Phytotoxicity in Allium cepa (onion) seedling assessed as total fresh weight at 3.2 kg/ha applied as spray before seed sowing (reference value: 7.71 MT/ha); type: organism-based; conditions: in vivo, other
Cyperus rotundus [25] = assay: Herbicidal activity against Cyperus rotundus assessed as decrease in total dry weight at 0.02 kg/ha applied as spray during post-emergence relative to weed-infested control; type: functional; design: scale not given: the % may be the effect or the level left
Malva sylvestris [26] = assay: Herbicidal activity against Malva sylvestris assessed as decrease in total dry weight at 0.02 kg/ha applied as spray during post-emergence relative to weed-infested control; type: functional; design: scale not given: the % may be the effect or the level left
Chenopodiastrum murale [27] = assay: Herbicidal activity against Chenopodium murale assessed as decrease in total dry weight at 0.02 kg/ha applied as spray during postemergence relative to weed-infested control; type: functional; design: scale not given: the % may be the effect or the level left
Malva sylvestris [28] = assay: Herbicidal activity against Malva sylvestris assessed as total fresh weight at 0.02 kg/ha applied as spray during post-emergence (reference value: 23.6 MT/ha); type: functional
Cyperus rotundus [29] = assay: Herbicidal activity against Cyperus rotundus assessed as total fresh weight at 0.02 kg/ha applied as spray during post-emergence (reference value: 23.6 MT/ha); type: functional
Chenopodiastrum murale [30] = assay: Herbicidal activity against Chenopodium murale assessed as total fresh weight at 0.02 kg/ha applied as spray during postemergence (reference value: 23.6 MT/ha); type: functional
Allium cepa [31] = assay: Phytotoxicity in Allium cepa (onion) seedling assessed as total fresh weight at 0.02 kg/ha applied as spray during postemergence (reference value: 7.71 MT/ha); type: organism-based; conditions: in vivo, other
Cyperus rotundus [32] = assay: Herbicidal activity against Cyperus rotundus assessed as total dry weight at 0.1 kg/ha applied as spray during post-emergence (reference value: 4.1 MT/ha); type: functional
Malva sylvestris [33] = assay: Herbicidal activity against Malva sylvestris assessed as total dry weight at 0.1 kg/ha applied as spray during post-emergence (reference value: 4.1 MT/ha); type: functional
Chenopodiastrum murale [34] = assay: Herbicidal activity against Chenopodium murale assessed as total dry weight at 0.1 kg/ha applied as spray during postemergence (reference value: 4.1 MT/ha); type: functional
Cyperus rotundus [35] = assay: Herbicidal activity against Cyperus rotundus assessed as total fresh weight at 0.1 kg/ha applied as spray during post-emergence (reference value: 23.6 MT/ha); type: functional
Malva sylvestris [36] = assay: Herbicidal activity against Malva sylvestris assessed as total fresh weight at 0.1 kg/ha applied as spray during post-emergence (reference value: 23.6 MT/ha); type: functional
Chenopodiastrum murale [37] = assay: Herbicidal activity against Chenopodium murale assessed as total fresh weight at 0.1 kg/ha applied as spray during postemergence (reference value: 23.6 MT/ha); type: functional
Allium cepa [38] = assay: Phytotoxicity in Allium cepa (onion) seedling assessed as total fresh weight at 0.1 kg/ha applied as spray during postemergence (reference value: 7.71 MT/ha); type: organism-based; conditions: in vivo, other

Question: For `CCOc1cc(Oc2ccc(C(F)(F)F)cc2Cl)ccc1[N+](=O)[O-]` [OXYFLUORFEN], which Activity (Cyperus rotundus [1]) is on record?
Answer: 15.8 MT/ha

Question: And the Activity (Malva sylvestris [2])?
Answer: 15.8 MT/ha

Question: And the Activity (Chenopodiastrum murale [3])?
Answer: 15.8 MT/ha

Question: What about the Activity (Cyperus rotundus [4]) of the same molecule?
Answer: 68%

Question: And the Activity (Malva sylvestris [5])?
Answer: 68%

Question: What about the Activity (Chenopodiastrum murale [6]) of the same molecule?
Answer: 68%

Question: And the Activity (Malva sylvestris [7])?
Answer: 2.93 MT/ha

Question: What about the Activity (Cyperus rotundus [8]) of the same molecule?
Answer: 2.93 MT/ha

Question: What about the Activity (Malva sylvestris [9]) of the same molecule?
Answer: 7.7 MT/ha

Question: And the Activity (Cyperus rotundus [10])?
Answer: 7.7 MT/ha

Question: What about the Activity (Chenopodiastrum murale [11]) of the same molecule?
Answer: 7.7 MT/ha

Question: And the Activity (Chenopodiastrum murale [12])?
Answer: 2.93 MT/ha

Question: What about the Activity (Allium cepa [13]) of the same molecule?
Answer: 17.01 MT/ha

Question: What about the Activity (Allium cepa [14]) of the same molecule?
Answer: 8.68 MT/ha

Question: `CCC(CC)Nc1c([N+](=O)[O-])cc(C)c(C)c1[N+](=O)[O-]` [PENDIMETHALIN] was tested. Which Activity (Cyperus rotundus [15]) did it give?
Answer: 17.5 MT/ha

Question: And the Activity (Cyperus rotundus [16])?
Answer: 2.9 MT/ha

Question: What about the Activity (Allium cepa [17]) of the same molecule?
Answer: 7.42 MT/ha

Question: Which results are given for `Nc1cnn(-c2ccccc2)c(=O)c1Cl` [PYRAZON]?
Answer: Activity (Cyperus rotundus [18]): 9.5 MT/ha; Activity (Malva sylvestris [19]): 9.5 MT/ha; Activity (Chenopodiastrum murale [20]): 9.5 MT/ha; Activity (Chenopodiastrum murale [21]): 1.94 MT/ha; Activity (Cyperus rotundus [22]): 1.94 MT/ha; Activity (Malva sylvestris [23]): 1.94 MT/ha; Activity (Allium cepa [24]): 6.68 MT/ha

Question: Which Activity (Cyperus rotundus [25]) does the source give for `C[n+]1ccc(-c2cc[n+](C)cc2)cc1` [PARAQUAT] here?
Answer: 60%

Question: What about the Activity (Malva sylvestris [26]) of the same molecule?
Answer: 60%

Question: And the Activity (Chenopodiastrum murale [27])?
Answer: 60%

Question: What about the Activity (Malva sylvestris [28]) of the same molecule?
Answer: 8.2 MT/ha

Question: What about the Activity (Cyperus rotundus [29]) of the same molecule?
Answer: 8.2 MT/ha

Question: What about the Activity (Chenopodiastrum murale [30]) of the same molecule?
Answer: 8.2 MT/ha

Question: What about the Activity (Allium cepa [31]) of the same molecule?
Answer: 14.11 MT/ha

Question: Which results are given for `CCOC(=O)C(C)Oc1ccc(Oc2cnc3cc(Cl)ccc3n2)cc1` (stereo not drawn) [QUIZALOFOP ETHYL ESTER]?
Answer: Activity (Cyperus rotundus [32]): 2.52 MT/ha; Activity (Malva sylvestris [33]): 2.52 MT/ha; Activity (Chenopodiastrum murale [34]): 2.52 MT/ha; Activity (Cyperus rotundus [35]): 10.7 MT/ha; Activity (Malva sylvestris [36]): 10.7 MT/ha; Activity (Chenopodiastrum murale [37]): 10.7 MT/ha; Activity (Allium cepa [38]): 10.11 MT/ha
